In experiment [1] the test system is MDA-MB-361 human breast cancer xenografts. The experiment is described as follows: Antitumor activity, multiple dosing schedules, MDA-MB-361 xenografts (Example 41). It is filed as in vivo, Mus musculus. Conditions: Day 28. Here is the method:
Compound A was prepared in 100% PEG400 every 5-7 days and stored at approximately 25° C., shielded from light. The control article used in this study was 100% PEG400.
Low passage MDA-MB-361 cells were grown in Dulbecco's Modified Eagle's Medium (DMEM) media supplemented with 20% fetal bovine serum (FBS) and 1× penicillin/streptomycin (Invitrogen) until approximately 80% confluency was reached. Prior to injection, the cells were detached with Trypsin (Invitrogen), washed twice with phosphate buffered saline (PBS), and resuspended in RPMI (Roswell Park Memorial Institute) media (Invitrogen) without supplements. Cells were resuspended to a final concentration of 10.0×10^7 cells/mL in DMEM media without supplements, with 50% Matrigel (BD Biosciences). MDA-MB-361 cells (10.0×10^6 cells per animal in 0.1-mL injection volume) were implanted SC into the flank of female athymic nude mice. The animals used in this study are described in the following table.
4-5 week old female athymic nude mice were inoculated SC in flank (cell suspension in serum free DMEM and 50% Matrigel) with 10.0×10^6 MDA-MB-361 cells. Tumor growth was monitored with vernier calipers. The mean TV (MTV) was calculated using the formula V=W^2×L/2. When the MTV reached approximately 280 mm^3, the animals were randomized into 14 treatment groups (n=5/group). […] Tumor growth and body weight were measured twice per week. Percent TGI and body weight change were calculated on Day 28. Treatment started on Day 0 for 28 days. Antitumor activity was determined on day 28 of treatment by calculating the percent TGI using
Percent TGI=(mean tumor volume [MTV] of the control group−MTV of a treated group)/MTV of the control group×100. Equation 1
The differences in the tumor growth trends over time between pairs of treatment groups were assessed using linear mixed effects regression models. These models account for the fact that each animal was measured at multiple time points. A separate model was fit for each comparison, and the area under the curve (AUC) values for each treatment group were calculated using the predicted values from the model. The percent decrease in AUC (ΔAUC) relative to the reference group was then calculated.
Drug combinations were assessed for synergy using observed AUC values. The change in AUC relative to the control was calculated for both single agent treatment groups as well as the combination group. The interaction between the two compounds was then assessed by comparing the change in AUC observed in the combination group to the sum of the changes observed in both single agents. The results can be divided into four categories: synergistic, additive, sub-additive, and antagonistic. Further details regarding combination analyses are provided in the appendix. All p values less than 0.05 were considered significant.

Experiment [2] shares this test system. Put plainly: Antitumor activity and tumor regrowth, MDA-MB-361 xenografts (Example 42). To be noted: for TGI: Day 29; for MTV on Day 65: n = 4; for % TGI on Day 65: based on the control group on Day 65. The class given is in vivo, Mus musculus. The protocol:
(room temperature), shielded from light. The test article Compound A was prepared in 5% NMP+95% PEG400 every 5 to 7 days and stored at approximately 25° C. (room temperature), shielded from light. The control article used in this study was 5% NMP+95% PEG400. Compounds were completely dissolved in NMP by sonication, followed by the addition of an appropriate volume of PEG400, and the final solution was vortexed and sonicated to ensure thorough mixing.
Low-passage MDA-MB-361 cells were grown in Eagle's Minimal Essential Medium (EMEM) media supplemented with 20% fetal bovine serum (FBS) and 1× penicillin/streptomycin (Invitrogen, Carlsbad, Calif., USA) until approximately 80% confluency was reached. Before injection, the cells were detached with GIBCO® trypsin (Invitrogen), washed twice with phosphate-buffered saline (PBS), and resuspended in Roswell Park Memorial Institute (RPMI) media (Invitrogen) without supplements. Cells were resuspended to a final concentration of 5×10^7 cells/mL in RPMI media without supplements. MDA-MB-361 cells (5.0×10^6 cells/animal in 0.1-mL injection volume) were implanted SC into the flank of female athymic nu/nu nude mice. The animals used in this study are described in the following table.
Female 5 to 6-week old female (athymic nu/nu) nude mice were inoculated SC in the flank with 5.0×10^6 MDA-MB-361 cells. Tumor growth was monitored with vernier calipers. The MTV was calculated using the formula V=W^2×L÷2. When the MTV reached approximately 235 mm^3, the animals were randomized into 4 treatment groups (n=8/group). Treatment started on Day 0. […] Tumor growth and body weight were measured twice weekly. Percent TGI and body weight change were calculated on Day 29. Four mice from each group were euthanized on Day 29 and tissues were harvested for pharmacodynamic studies. The remaining mice continued on study until Day 65, and tumor size and body weight in these mice were measured every 9 to 11 days.
Antitumor activity was determined by calculating the percent TGI using Equation 1: Percent TGI)=(MTV of the control group−MTV of a treated group) MTV of the control group×100
Tumor growth delay was determined by calculating the time until MTV in a given treatment group reached 1000 mm^3 versus the time until MTV in the control group reached 1000 mm^3.
The differences in trends of tumor growth over time between pairs of treatment groups were assessed using linear mixed-effects regression models. These models account for the fact that each animal was measured at multiple time points. A separate model was fit for each comparison, and the AUC for each treatment group was calculated using the predicted values from the model. The percent decrease in AUC (ΔAUC) relative to the reference group was then calculated.
A statistical analysis was performed with a linear mixed-effects regression model that takes into account the differences in trends of tumor growth between control and treated samples. Differences among mice were treated as random effects, and a compound symmetry covariance structure was used to model the variability between repeated tumor measurements for each mouse. Treatment comparisons were performed by using the fitted curves from the model to calculate the ΔAUC. The significance of the ΔAUC was assessed using permutation testing. All p values less than 0.05 were considered significant.
A combination score calculation was used to address the question of whether the effects of the combination treatments were more than additive (synergistic), additive, or subadditive (antagonistic) relative to the individual treatments. […] All p values less than 0.05 were considered significant.

The subject of another experiment is KRAS/PIK3CA colon model. Put plainly: KRAS/PIK3CA colon model (FIG. 19). It is filed as in vivo.
The subject of the next experiment is PTEN mutant cells. The experiment is described as follows: Western blot of Akt, S6 and 4EBP phosphorylation in PTEN mutant cells (FIG. 6B). The class given is cell-based.
Experiment [3] concerns MDA-MB-361 (PI3Kα/HER2 carcinoma) tumors. Put plainly: In vivo efficacy in xenogenic mouse model of breast cancer. On the set-up: species or system Nude mice. Conditions: 60 mg/kg, FIG. 9 left panel. Here is the method:
Blood glucose was monitored periodically following administration of treatment.
Treatment of tumors (MDA-MB-361) with compounds was discontinued on Day 30. Tumors were measured every 2-5 days.

Experiment [4] concerns MDA-MB-361, MDA-MB-453 and SKBr3 breast cancer cells. Put plainly: Western blot of PI3K pathway in cell lines with elevated PI3K α activity (FIG. 11). It is filed as cell-based. Conditions: cell lines with elevated PI3K α activity: MDA-MB-361, MDA-MB-453 (PIK3CA mutation), SKBr3 (HER2).

SMILES strings stand for the structures. Several values for one entry are separate records, joined by “and”; a condition that tells them apart may be missing. Identical values can stand only once.

Turning to `CC(C)n1nc(-c2ccc3oc(N)nc3c2)c2c(N)ncnc21` [Compound B], the TGI in experiment [1] (0.3 mg/kg QD PO) is 71.1%; in experiment [1] (1.0 mg/kg QD 3on/4off PO), 63.6%; in experiment [1] (3.0 mg/kg QW PO), 52.7%; in experiment [2] (0.3 mg/kg PO QD for 30 days) it was 71.1%. For the same compound, the “MTV on Day 65” value in experiment [2] (0.3 mg/kg PO QD until Day 29, regrowth) is listed as 649.6 ± 457.7 mm^3. Further, the “% TGI on Day 65” value in experiment [2] (0.3 mg/kg PO QD until Day 29) was determined as 61.3%. Further, the “MTV on Day 29” value in experiment [2] (0.3 mg/kg PO QD, n = 8) is 210.9 mm^3 and 210.9 ± 103.3 mm^3. The “activity in a KRAS/PIK3CA colon model” value in the experiment with KRAS/PIK3CA colon model is on record as “not effective”. In addition, the “inhibition of Akt, S6, and 4EBP phosphorylation” value in the experiment on PTEN mutant cells is recorded as “selective inhibition”.
As for `Nc1nc2cc(-c3ccc4ncc(C(=O)N5CCOCC5)n4c3)ccc2o1` [Compound A], the inhibition of tumour growth (TGI) is listed as 84.5% in experiment [1] (60 mg/kg QD PO); 76.0% in experiment [1] (70 mg/kg QD 3on/4off PO); 84.2% in experiment [1] (140 mg/kg QD 3on/4off PO); 64.7% in experiment [1] (210 mg/kg QW PO); 77.4% in experiment [2] (60.0 mg/kg PO QD). In addition, the tumor weight entry in experiment [3] was “reduction in tumor weight”. Besides, the “MTV on Day 65” value in experiment [2] (60 mg/kg PO QD until Day 29, regrowth) was 500 mm^3 and 511.4 ± 568^ mm^3. Further, the “% TGI on Day 65” value in experiment [2] (60 mg/kg PO QD until Day 29) was found to be 69.5%. Besides, the “activity in a KRAS/PIK3CA colon model” value in the experiment on KRAS/PIK3CA colon model is given as “not effective”. Also, the “inhibition of Akt, S6, and 4EBP phosphorylation” value in the experiment on PTEN mutant cells is listed as “not”. Also, the “inhibition of the PI3K pathway” value in experiment [4] is on record as “inhibition of the PI3K pathway”.

For the origin of these results see patent US20150087627A1, “COMBINATION OF KINASE INHIBITORS AND USES THEREOF” (Intellikine LLC, priority 2011, published 2015).
